Details: Fluid (supercritical or subcritical phases), Vibrating wire viscometry

N#N [nitrogen]
Details | viscosity [mPa·s]
298.15 K, 100 kPa | 0.01778
298.15 K, 150 kPa | 0.01779
298.15 K, 200 kPa | 0.01781
298.15 K, 250 kPa | 0.01782
298.15 K, 300.1 kPa | 0.01782
298.15 K, 350.1 kPa | 0.01784
298.15 K, 400 kPa | 0.01784
298.15 K, 450.1 kPa | 0.01784
298.15 K, 500.1 kPa | 0.01785
298.15 K, 600.1 kPa | 0.01786
298.15 K, 700.1 kPa | 0.01787
298.15 K, 800.1 kPa | 0.01789
298.15 K, 900.1 kPa | 0.0179
298.15 K, 1000.2 kPa | 0.01792
298.15 K, 1100.2 kPa | 0.01793
298.15 K, 1200.1 kPa | 0.01795
298.15 K, 1300.1 kPa | 0.01796
298.15 K, 1400.1 kPa | 0.01797
298.15 K, 1500.1 kPa | 0.01798
298.15 K, 1599.9 kPa | 0.018
298.15 K, 1700 kPa | 0.01801
298.15 K, 1800.1 kPa | 0.01803
298.15 K, 1899.9 kPa | 0.01805
298.15 K, 2000.4 kPa | 0.01806
298.15 K, 2250 kPa | 0.0181
298.15 K, 2500.3 kPa | 0.01815
298.15 K, 2750.4 kPa | 0.01818
298.15 K, 3000.9 kPa | 0.01822
298.15 K, 3250.3 kPa | 0.01825
298.15 K, 3500.7 kPa | 0.01831
298.15 K, 3750.7 kPa | 0.01835
298.15 K, 4001 kPa | 0.01841
298.15 K, 4250.5 kPa | 0.01846
298.15 K, 4499.8 kPa | 0.01851
298.15 K, 4749.9 kPa | 0.01858
298.15 K, 5000.5 kPa | 0.01861
298.15 K, 5500.9 kPa | 0.01872
298.15 K, 6005.4 kPa | 0.01884
298.15 K, 6500.4 kPa | 0.01897
298.15 K, 7002.5 kPa | 0.01909
298.15 K, 7501.6 kPa | 0.01921
298.15 K, 8000.9 kPa | 0.01934
298.15 K, 8500.9 kPa | 0.01947
298.15 K, 8999.3 kPa | 0.01961
298.15 K, 9499.4 kPa | 0.01973
298.15 K, 10001 kPa | 0.01988
298.15 K, 11005 kPa | 0.02018
298.15 K, 12002 kPa | 0.02047
298.15 K, 13004 kPa | 0.02079
298.15 K, 14004 kPa | 0.0211
298.15 K, 15006 kPa | 0.02142
298.15 K, 16001 kPa | 0.02176
298.15 K, 17010 kPa | 0.02211
298.15 K, 18008 kPa | 0.02247
298.15 K, 19006 kPa | 0.02284
298.15 K, 20005 kPa | 0.02318
298.15 K, 21000 kPa | 0.02354
298.15 K, 22001 kPa | 0.02391
298.15 K, 23008 kPa | 0.02429
298.15 K, 24003 kPa | 0.02466
298.15 K, 25014 kPa | 0.02503
298.15 K, 26005 kPa | 0.02541
298.15 K, 27010 kPa | 0.02581
298.15 K, 28009 kPa | 0.0262
298.15 K, 29013 kPa | 0.02657
298.15 K, 30010 kPa | 0.02695
298.15 K, 31009 kPa | 0.02735
298.15 K, 31995 kPa | 0.02774
298.15 K, 33004 kPa | 0.02814
298.15 K, 33949 kPa | 0.02852
298.15 K, 35027 kPa | 0.02893
323.15 K, 100 kPa | 0.0189
323.15 K, 200.1 kPa | 0.01893
323.15 K, 300.1 kPa | 0.01895
323.15 K, 400.1 kPa | 0.01896
323.15 K, 600.1 kPa | 0.01898
323.15 K, 800.3 kPa | 0.019
323.15 K, 1000.6 kPa | 0.01903
323.15 K, 1500.7 kPa | 0.0191
323.15 K, 2000.7 kPa | 0.01917
323.15 K, 2500.9 kPa | 0.01924
323.15 K, 3000.8 kPa | 0.01932
323.15 K, 3502.6 kPa | 0.0194
323.15 K, 4001.8 kPa | 0.01948
323.15 K, 4500.4 kPa | 0.01957
323.15 K, 5002.2 kPa | 0.01965
323.15 K, 5503.9 kPa | 0.01976
323.15 K, 6003.6 kPa | 0.01983
323.15 K, 6503.6 kPa | 0.01994
323.15 K, 7009.3 kPa | 0.02005
323.15 K, 7502.7 kPa | 0.02015
323.15 K, 8003.1 kPa | 0.02027
323.15 K, 8504.2 kPa | 0.02038
323.15 K, 9006.1 kPa | 0.0205
323.15 K, 9500.4 kPa | 0.02062
323.15 K, 10007 kPa | 0.02073
323.15 K, 11007 kPa | 0.02098
323.15 K, 12006 kPa | 0.02124
323.15 K, 13005 kPa | 0.02151
323.15 K, 14005 kPa | 0.02176
323.15 K, 15005 kPa | 0.02205
323.15 K, 16009 kPa | 0.02233
323.15 K, 17007 kPa | 0.02262
323.15 K, 18000 kPa | 0.02292
323.15 K, 19007 kPa | 0.02323
323.15 K, 19999 kPa | 0.02354
323.15 K, 21010 kPa | 0.02383
323.15 K, 22011 kPa | 0.02417
323.15 K, 23013 kPa | 0.02451
323.15 K, 24004 kPa | 0.02481
323.15 K, 25005 kPa | 0.02511
323.15 K, 26011 kPa | 0.02547
323.15 K, 27000 kPa | 0.02579
323.15 K, 28012 kPa | 0.02613
323.15 K, 29014 kPa | 0.02646
323.15 K, 30014 kPa | 0.02677
323.15 K, 31013 kPa | 0.02714
323.15 K, 31997 kPa | 0.02746
323.15 K, 33007 kPa | 0.02781
323.15 K, 34009 kPa | 0.02814
323.15 K, 35066 kPa | 0.02852
348.15 K, 100.1 kPa | 0.02
348.15 K, 200.1 kPa | 0.02003
348.15 K, 300.1 kPa | 0.02004
348.15 K, 400.2 kPa | 0.02005
348.15 K, 600.5 kPa | 0.02007
348.15 K, 800.6 kPa | 0.02009
348.15 K, 1000.9 kPa | 0.02011
348.15 K, 1501.9 kPa | 0.02017
348.15 K, 2001.6 kPa | 0.02023
348.15 K, 2502 kPa | 0.0203
348.15 K, 3002.6 kPa | 0.02037
348.15 K, 3504.2 kPa | 0.02044
348.15 K, 3999.6 kPa | 0.02051
348.15 K, 4508.2 kPa | 0.02058
348.15 K, 5002.2 kPa | 0.02066
348.15 K, 5502.8 kPa | 0.02074
348.15 K, 6003.4 kPa | 0.02084
348.15 K, 6501.3 kPa | 0.02092
348.15 K, 7002.3 kPa | 0.02101
348.15 K, 7502.5 kPa | 0.0211
348.15 K, 8002.1 kPa | 0.0212
348.15 K, 8501.8 kPa | 0.02129
348.15 K, 9004 kPa | 0.02139
348.15 K, 9498.9 kPa | 0.0215
348.15 K, 10001 kPa | 0.02161
348.15 K, 11007 kPa | 0.02182
348.15 K, 12007 kPa | 0.02203
348.15 K, 13006 kPa | 0.02227
348.15 K, 14001 kPa | 0.0225
348.15 K, 15011 kPa | 0.02274
348.15 K, 16001 kPa | 0.02299
348.15 K, 17002 kPa | 0.02326
348.15 K, 18004 kPa | 0.02351
348.15 K, 19008 kPa | 0.02378
348.15 K, 20006 kPa | 0.02404
348.15 K, 21004 kPa | 0.02431
348.15 K, 22011 kPa | 0.02458
348.15 K, 23006 kPa | 0.02486
348.15 K, 24004 kPa | 0.02515
